# Results as given in publication PMC4932848 (Biochemistry, 2012).
# Biological target: T1, hUXS (human UDP-α-D-xylose synthase) (Homo sapiens, UniProt Q8NBZ7)
# T1 sequence (Q8NBZ7 85-420): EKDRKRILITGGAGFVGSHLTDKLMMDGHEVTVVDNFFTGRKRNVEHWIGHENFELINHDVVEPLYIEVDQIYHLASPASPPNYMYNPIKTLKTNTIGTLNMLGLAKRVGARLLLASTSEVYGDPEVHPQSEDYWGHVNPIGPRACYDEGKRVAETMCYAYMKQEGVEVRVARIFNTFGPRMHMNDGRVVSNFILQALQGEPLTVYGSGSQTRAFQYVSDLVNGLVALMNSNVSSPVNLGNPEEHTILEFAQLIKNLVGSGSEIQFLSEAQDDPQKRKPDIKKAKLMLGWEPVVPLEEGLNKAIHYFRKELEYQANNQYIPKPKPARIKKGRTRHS
# Assay: X-ray crystal structure, […] Å
# Type: binding
# Details: copurified NAD+ bound, open conformation, no nucleotide sugar
smiles,measurement,value
NC(=O)c1ccc[n+]([C@@H]2O[C@H](COP(=O)(O)OP(=O)(O)OC[C@H]3O[C@@H](n4cnc5c(N)ncnc54)[C@H](O)[C@@H]3O)[C@@H](O)[C@H]2O)c1 [NAD^+],"X-ray crystal structure, 2.5 Å",Recombinant hUXS crystallizes with the copurified NAD^+ cofactor bound
